Residues, ends and D or L forms follow the SMILES beside them.
Target: α1β1γδ nAChR (Homo sapiens, UniProt P02708+P07510+P11230+Q07001)
Experiment: cell-based
Assay type: cell-based

Chain of α1β1γδ nAChR (P02708 21-457 limits assumed): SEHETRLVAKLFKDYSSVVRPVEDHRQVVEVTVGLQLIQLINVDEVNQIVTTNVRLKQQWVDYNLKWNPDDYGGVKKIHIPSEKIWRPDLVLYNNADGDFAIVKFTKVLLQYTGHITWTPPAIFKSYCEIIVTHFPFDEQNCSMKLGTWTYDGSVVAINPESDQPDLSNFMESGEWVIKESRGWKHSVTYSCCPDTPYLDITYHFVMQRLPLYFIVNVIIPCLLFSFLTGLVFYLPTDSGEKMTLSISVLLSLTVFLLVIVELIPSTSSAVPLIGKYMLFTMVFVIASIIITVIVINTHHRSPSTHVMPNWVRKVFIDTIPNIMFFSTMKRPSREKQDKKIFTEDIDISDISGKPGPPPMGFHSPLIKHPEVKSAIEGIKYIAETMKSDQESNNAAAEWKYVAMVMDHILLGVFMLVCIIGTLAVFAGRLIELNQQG
Chain of α1β1γδ nAChR (P11230 24-501 partner limits assumed): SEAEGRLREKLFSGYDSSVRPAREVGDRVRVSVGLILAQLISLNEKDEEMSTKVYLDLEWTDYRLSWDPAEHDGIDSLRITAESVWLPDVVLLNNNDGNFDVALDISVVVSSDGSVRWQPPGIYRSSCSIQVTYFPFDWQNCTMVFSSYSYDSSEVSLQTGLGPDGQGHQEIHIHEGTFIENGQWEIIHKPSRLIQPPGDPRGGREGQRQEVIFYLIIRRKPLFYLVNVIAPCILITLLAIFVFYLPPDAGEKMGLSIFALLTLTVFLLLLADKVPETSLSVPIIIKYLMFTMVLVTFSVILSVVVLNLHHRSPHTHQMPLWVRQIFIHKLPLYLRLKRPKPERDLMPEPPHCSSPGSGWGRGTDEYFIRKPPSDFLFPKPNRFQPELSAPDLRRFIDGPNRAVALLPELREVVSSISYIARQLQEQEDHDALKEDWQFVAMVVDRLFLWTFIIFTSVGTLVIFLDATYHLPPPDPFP
Chain of α1β1γδ nAChR (P07510 23-517 limits assumed): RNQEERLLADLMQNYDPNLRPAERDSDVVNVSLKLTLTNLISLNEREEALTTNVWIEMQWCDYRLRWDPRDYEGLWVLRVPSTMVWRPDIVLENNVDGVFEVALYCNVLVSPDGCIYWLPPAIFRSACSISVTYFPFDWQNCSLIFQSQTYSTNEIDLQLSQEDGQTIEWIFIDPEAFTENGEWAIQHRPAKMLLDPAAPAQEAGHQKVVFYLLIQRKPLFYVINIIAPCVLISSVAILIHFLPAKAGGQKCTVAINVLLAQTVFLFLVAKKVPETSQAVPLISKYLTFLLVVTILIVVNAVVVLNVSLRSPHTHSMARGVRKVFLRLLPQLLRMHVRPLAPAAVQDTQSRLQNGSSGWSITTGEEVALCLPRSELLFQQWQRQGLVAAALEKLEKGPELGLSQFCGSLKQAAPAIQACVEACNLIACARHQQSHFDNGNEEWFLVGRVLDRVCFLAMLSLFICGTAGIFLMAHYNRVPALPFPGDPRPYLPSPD
Chain of α1β1γδ nAChR (Q07001 22-517 limits assumed): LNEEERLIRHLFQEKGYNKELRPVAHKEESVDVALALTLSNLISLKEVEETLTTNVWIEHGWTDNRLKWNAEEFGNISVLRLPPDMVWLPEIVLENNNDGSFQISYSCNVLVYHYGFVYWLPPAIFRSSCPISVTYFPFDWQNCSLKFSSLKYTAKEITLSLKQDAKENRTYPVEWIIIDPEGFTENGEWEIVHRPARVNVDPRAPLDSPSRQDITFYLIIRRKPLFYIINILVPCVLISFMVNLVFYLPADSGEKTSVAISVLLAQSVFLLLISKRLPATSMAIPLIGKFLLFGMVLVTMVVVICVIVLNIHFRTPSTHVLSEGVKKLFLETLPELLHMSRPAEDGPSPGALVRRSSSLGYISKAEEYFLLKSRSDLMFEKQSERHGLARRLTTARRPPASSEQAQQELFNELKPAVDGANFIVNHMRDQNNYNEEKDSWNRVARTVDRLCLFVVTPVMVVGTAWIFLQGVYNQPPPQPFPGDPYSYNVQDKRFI

With CSCC[C@@H]1NC(=O)[C@@H]2CSSC[C@H](NC(=O)[C@H](CCSC)NC(=O)[C@@H](N)CC(=O)O)C(=O)N[C@@H](CSSC[C@@H](C(N)=O)NC(=O)[C@H](CC(N)=O)NC(=O)[C@H](Cc3ccccc3)NC(=O)[C@H](Cc3c[nH]cn3)NC(=O)[C@H](CC(N)=O)NC1=O)C(=O)N[C@@H](Cc1c[nH]cn1)C(=O)N1CCC[C@H]1C(=O)N[C@@H](C)C(=O)N2 [MilIA] (HELM PEPTIDE1{D.M.C.C.H.P.A.C.M.N.H.F.N.C.[am]}$PEPTIDE1,PEPTIDE1,3:R3-8:R3|PEPTIDE1,PEPTIDE1,4:R3-14:R3$$$V2.0) the “inhibition of the ACh-evoked current amplitude, α1β1γδ” value was 20% and the IC50 (SEM) was 13.1 µM.
